Test results from PubChem BioAssay AID192 (DTP/NCI, 2004).
Inconclusive results and toxic doses are left out. The calls were made as follows: active = survival T/C of 150% or more; inactive = T/C below 125% in these data.

Test system: BDF1 mice, B16 melanoma ip, median survival T/C
Assay: NCI In Vivo Anticancer Drug Screen. Data for tumor model B16 Melanoma (intraperitoneal) in B6D2F1 (BDF1) mice
Conditions: endpoint: median survival time, higher = longer survival
How it was run: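 Read-out: survival or tumor size, given as treated/control ratio. Controls received vehicle only; animals bore transplantable tumors.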

[1] = dose: 25.0 mg/kg/injection, schedule: Q01DX009 (ip), vehicle: saline
[2] = dose: 50.0 mg/kg/injection, schedule: Q01DX009 (ip), vehicle: saline
[3] = dose: 100.0 mg/kg/injection, schedule: Q01DX009 (ip), vehicle: saline

Measured: T/C

CCOC(=O)/C=C/C(=O)NCC(N)C(=O)O (stereo not given)
inactive: dose: 6.25 mg/kg/injection, schedule: Q01DX009 (ip), vehicle: distilled water + Tween-80 96 % of control | dose: 12.5 mg/kg/injection, schedule: Q01DX009 (ip), vehicle: distilled water + Tween-80 88 % of control | dose: 25.0 mg/kg/injection, schedule: Q01DX009 (ip), vehicle: distilled water + Tween-80 104 % of control | dose: 50.0 mg/kg/injection, schedule: Q01DX009 (ip), vehicle: distilled water + Tween-80 88 % of control | dose: 100.0 mg/kg/injection, schedule: Q01DX009 (ip), vehicle: distilled water + Tween-80 98 % of control

CC(=O)OCC12CCC(C)=CC1OC1C(OS(C)(=O)=O)C(=O)C2(C)C12CO2 (stereo not given)
inactive: dose: 0.5 mg/kg/injection, schedule: Q01DX009 (ip), vehicle: saline 101 % of control | dose: 1.0 mg/kg/injection, schedule: Q01DX009 (ip), vehicle: saline 95 % of control | dose: 2.0 mg/kg/injection, schedule: Q01DX009 (ip), vehicle: saline 104 % of control | dose: 4.0 mg/kg/injection, schedule: Q01DX009 (ip), vehicle: saline 88 % of control

CCC1(O)CC2c3ccccc3CCN2CC1CC(C)C (stereo not given)
inactive: dose: 0.19 mg/kg/injection, schedule: Q01DX009 (ip), vehicle: saline 104 % of control | dose: 0.39 mg/kg/injection, schedule: Q01DX009 (ip), vehicle: saline 111 % of control | dose: 0.78 mg/kg/injection, schedule: Q01DX009 (ip), vehicle: saline 109 % of control | dose: 1.56 mg/kg/injection, schedule: Q01DX009 (ip), vehicle: saline 112 % of control | dose: 3.12 mg/kg/injection, schedule: Q01DX009 (ip), vehicle: saline 112 % of control

CCOC(=O)CCC(NC(=O)c1ccc(NCc2ccc3nc(N)nc(N)c3c2C)cc1)C(=O)OCC (stereo not given)
inactive: dose: 0.01 mg/kg/injection, schedule: Q01DX009 (ip), vehicle: saline + alcohol 108 % of control | dose: 0.02 mg/kg/injection, schedule: Q01DX009 (ip), vehicle: saline + alcohol 102 % of control | dose: 0.03 mg/kg/injection, schedule: Q01DX009 (ip), vehicle: saline + alcohol 105 % of control | dose: 0.06 mg/kg/injection, schedule: Q01DX009 (ip), vehicle: saline + alcohol 93 % of control | dose: 0.11 mg/kg/injection, schedule: Q01DX009 (ip), vehicle: saline + alcohol 91 % of control

CSc1sc2ccccc2[n+]1C
inactive: [1] 100 % of control | [2] 98 % of control | [3] 91 % of control

CCC[CH2][Sn]1([CH2]CCC)[O]OC(c2ccccc2)[O]1 (stereo not given)
inactive: dose: 0.19 mg/kg/injection, schedule: Q01DX009 (ip), vehicle: Klucel (hydroxypropylcellulose) (HPC) 98 % of control | dose: 0.38 mg/kg/injection, schedule: Q01DX009 (ip), vehicle: Klucel (hydroxypropylcellulose) (HPC) 87 % of control | dose: 0.75 mg/kg/injection, schedule: Q01DX009 (ip), vehicle: Klucel (hydroxypropylcellulose) (HPC) 107 % of control | dose: 1.5 mg/kg/injection, schedule: Q01DX009 (ip), vehicle: Klucel (hydroxypropylcellulose) (HPC) 102 % of control | dose: 3.0 mg/kg/injection, schedule: Q01DX009 (ip), vehicle: Klucel (hydroxypropylcellulose) (HPC) 101 % of control | dose: 3.0 mg/kg/injection, schedule: Q01DX009 (ip), vehicle: saline with Tween-80 102 % of control

COc1cc2ccc(CCNCc3ccccc3)cc2cc1OC
inactive: dose: 50.0 mg/kg/injection, schedule: Q04DX003 (ip), vehicle: saline 92 % of control | dose: 100.0 mg/kg/injection, schedule: Q04DX003 (ip), vehicle: saline 94 % of control

C[N+]1(C)C2CC(=O)CC1C1CC12 (stereo not given) (tested in a mixture with another compound)
inactive: [1] 102 % of control | [2] 89 % of control | [3] 99 % of control | dose: 200.0 mg/kg/injection, schedule: Q01DX009 (ip), vehicle: saline 100 % of control

O=S(=O)(Nc1ccc(F)cc1)c1ccccc1
inactive: dose: 100.0 mg/kg/injection, schedule: Q01DX009 (ip), vehicle: Klucel (hydroxypropylcellulose) (HPC) 96 % of control | dose: 200.0 mg/kg/injection, schedule: Q01DX009 (ip), vehicle: Klucel (hydroxypropylcellulose) (HPC) 99 % of control | dose: 400.0 mg/kg/injection, schedule: Q01DX009 (ip), vehicle: Klucel (hydroxypropylcellulose) (HPC) 97 % of control

CNCCC=C1c2ccccc2CCc2ccccc21
inactive: dose: 6.25 mg/kg/injection, schedule: Q01DX009 (ip), vehicle: saline 102 % of control | dose: 12.5 mg/kg/injection, schedule: Q01DX009 (ip), vehicle: saline 97 % of control | [1] 102 % of control

Cl/C(=N\Nc1ccccc1)c1ccccc1
inactive: dose: 1.56 mg/kg/injection, schedule: Q01DX009 (ip), vehicle: Klucel (hydroxypropylcellulose) (HPC) 97 % of control | dose: 3.13 mg/kg/injection, schedule: Q01DX009 (ip), vehicle: Klucel (hydroxypropylcellulose) (HPC) 86 % of control | dose: 6.25 mg/kg/injection, schedule: Q01DX009 (ip), vehicle: Klucel (hydroxypropylcellulose) (HPC) 90 % of control

CCOC(=O)C(Cc1ccc(O)cc1)NP(=O)(OCCCl)OCCCl (stereo not given)
inactive: dose: 200.0 mg/kg/injection, schedule: Q04DX003 (ip), vehicle: Klucel (hydroxypropylcellulose) (HPC) 86 % of control | dose: 400.0 mg/kg/injection, schedule: Q04DX003 (ip), vehicle: Klucel (hydroxypropylcellulose) (HPC) 91 % of control
